Data as given in patent US20230340011A1 (Asteroid Therapeutics, priority 2022, published 2023).
Where two headings read alike, the source gives them in different places.

Tests used:
SREBP-2 = SREBP-2 (Homo sapiens (Human), UniProt Q12772); test: In vitro assay SREBP-2: PathHunter U2OS SREBP-2 Nuclear Translocation Cell Line, U18666A-stimulated; assay type: cell-based
LXRβ = LXRβ (Homo sapiens (Human), UniProt P55055); test: In vitro assay LXRβ: PathHunter NHR CHO cells, LXRβ / Steroid Receptor Co-activator Peptide enzyme fragment complementation; assay type: cell-based; details: PathHunter NHR CHO cells, full-length human LXRβ and SRCP, chemiluminescent signal; read-out: LXRβ PPI
LXRβ, sequence (P55055 whole entry, the tested form may be a part): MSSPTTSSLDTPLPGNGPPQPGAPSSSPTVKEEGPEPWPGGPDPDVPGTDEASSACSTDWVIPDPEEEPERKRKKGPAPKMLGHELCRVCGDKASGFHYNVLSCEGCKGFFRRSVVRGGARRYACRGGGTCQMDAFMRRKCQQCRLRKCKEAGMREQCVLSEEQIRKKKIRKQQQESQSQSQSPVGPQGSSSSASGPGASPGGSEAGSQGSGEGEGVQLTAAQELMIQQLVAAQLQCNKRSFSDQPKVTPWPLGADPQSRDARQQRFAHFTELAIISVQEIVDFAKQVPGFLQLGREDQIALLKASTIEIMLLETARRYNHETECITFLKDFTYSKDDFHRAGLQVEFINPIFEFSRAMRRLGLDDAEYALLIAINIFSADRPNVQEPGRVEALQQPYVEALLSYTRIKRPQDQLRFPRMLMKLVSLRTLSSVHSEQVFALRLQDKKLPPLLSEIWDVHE
In short: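 Co-activator recruitment measured by chemiluminescence after signal generation. The CHO line carries full-length human LXRβ tagged with ProLink and an SRCP–enzyme acceptor fusion in the nucleus; cells sat overnight at 37° C before testing, in charcoal-dextran filtered serum medium with 1% final vehicle.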

[1] = PathHunter U2OS SREBP-2 nuclear translocation cells, U18666A 10 μM, overnight (16 hours)

SMILES | IC50 (SREBP-2; [1]) | EC50 (LXRβ) | IC50 (SREBP-2)
C=CCN1C[C@H]2CCN(C(=O)CC[C@@H](C)[C@H]3CC[C@H]4[C@@H]5CC=C6C[C@@H](O)CC[C@]6(C)[C@H]5CC[C@]34C)[C@H]2C1 [Example 140, (R)-1-((3aR,6aR)-5-allylhexahydropyrrolo[3,4-b]pyrrol-1(2H)-yl)-4-((3S,8S,9S,10R,13R,14S,17R)-3-hydroxy-10,13-dimethyl-2,3,4,7,8,9,10,11,12,13,14,15,16,17-tetradecahydro-1H-cyclopenta[a]phenanthren-17-yl)pentan-1-one] | 250 to 1000 nM | > 10000 nM | –
CON(C)C(=O)C(C)C[C@@H](C)[C@H]1CC[C@H]2[C@@H]3CC=C4C[C@@H](O)CC[C@]4(C)[C@H]3CC[C@]12C (stereo partly drawn) [Example 142, (4R)-4-((3S,8S,9S,10R,13R,14S,17R)-3-hydroxy-10,13-dimethyl-2,3,4,7,8,9,10,11,12,13,14,15,16,17-tetradecahydro-1H-cyclopenta[a]phenanthren-17-yl) -N-methoxy-N,2-dimethylpentanamide] | – | 1000 to 10000 nM | 1000 to 10000 nM
C[C@H](CCC(=O)N1CCC(O)(CC(F)F)CC1)[C@H]1CC[C@H]2[C@@H]3CC=C4C[C@@H](O)CC[C@]4(C)[C@H]3CC[C@]12C [Example 151, (4R)-4-[(1R,3aS,3bS,7S,9aR,9bS,11aR)-7-hydroxy-9a,11a-dimethyl-1H,2H,3H,3aH,3bH,4H,6H,7H,8H,9H,9aH,9bH,10H,11H,11aH-cyclopenta[a]phenanthren-1-yl]-1-[4-(2,2-difluoroethyl)-4-hydroxypiperidin-1-yl]pentan-1-one] | < 250 nM | < 250 nM | –
C[C@H](OC(=O)C(=O)N1CCC1)[C@H]1CC[C@H]2[C@@H]3CC=C4C[C@@H](O)CC[C@]4(C)[C@H]3CC[C@]12C [Example 155, (1S)-1-[(1S,3aS,3bS,7S,9aR,9bS,11aS)-7-hydroxy-9a,11a-dimethyl-1H,2H,3H,3aH,3bH,4H,6H,7H,8H,9H,9aH,9bH,10H,11H,11aH-cyclopenta[a]phenanthren-1-yl]ethyl 2-(azetidin-1-yl)-2-oxoacetate] | 1000 to 10000 nM | > 10000 nM | –
CCC1(O)CCN(C(=O)CC[C@@H](C)[C@H]2CC[C@H]3[C@@H]4CC=C5C[C@@H](O)C[C@H](O)[C@]5(C)[C@H]4CC[C@]23C)CC1 [Example 156, (R)-4-((1S,3R,8S,9S,10R,13R,14S,17R)-1,3-dihydroxy-10,13-dimethyl-2,3,4,7,8,9,10,11,12,13,14,15,16,17-tetradecahydro-1H-cyclopenta[a]phenanthren-17-yl)-1-(4-ethyl-4-hydroxypiperidin-1-yl)pentan-1-one] | > 10000 nM | < 250 nM | –
C[C@H](CCC(=O)N(C)C)[C@H]1CC[C@H]2[C@@H]3CC=C4C[C@@H](O)CC[C@]4(C)[C@H]3[C@@H](O)C[C@]12C [Example 157, (R)-4-((3S,8S,9S,10R,11S,13R,14S,17R)-3,11-dihydroxy-10,13-dimethyl-2,3,4,7,8,9,10,11,12,13,14,15,16,17-tetradecahydro-1H-cyclopenta[a]phenanthren-17-yl)-N, N-dimethylpentanamide] | 250 to 1000 nM | 250 to 1000 nM | –
CCC1(O)CCN(C(=O)CC[C@@H](C)[C@H]2CC[C@H]3[C@@H]4CC=C5C[C@@H](O)CC[C@]5(C)[C@H]4[C@@H](O)C[C@]23C)CC1 [Example 158, (R)-4-((3S,8S,9S,10R,11S,13R,14S,17R)-3,11-dihydroxy-10,13-dimethyl-2,3,4,7,8,9,10,11,12,13,14,15,16,17-tetradecahydro-1H-cyclopenta[a]phenanthren-17-yl)-1-(4-ethyl-4-hydroxypiperidin-1-yl)pentan-1-one] | 250 to 1000 nM | < 250 nM | –
C[C@H](CCc1cccnc1)[C@H]1CC[C@H]2[C@@H]3CC=C4C[C@@H](O)CC[C@]4(C)[C@H]3CC[C@]12C [Example 159, (3S,8S,9S,10R,13R,14S,17R)-10,13-dimethyl-17-((R)-4-(pyridin-3-yl)butan-2-yl)-2,3,4,7,8,9,10,11,12,13,14,15,16,17-tetradecahydro-1H-cyclopenta[a]phenanthren-3-ol] | < 250 nM | > 10000 nM | –
C[C@H](CCc1ccncc1)[C@H]1CC[C@H]2[C@@H]3CC=C4C[C@@H](O)CC[C@]4(C)[C@H]3CC[C@]12C [Example 160, (3S,8S,9S,10R,13R,14S,17R)-10,13-dimethyl-17-((R)-4-(pyridin-4-yl)butan-2-yl)-2,3,4,7,8,9,10,11,12,13,14,15,16,17-tetradecahydro-1H-cyclopenta[a]phenanthren-3-ol] | 250 to 1000 nM | > 10000 nM | –
C[C@H](CCc1cccc(F)n1)[C@H]1CC[C@H]2[C@@H]3CC=C4C[C@@H](O)CC[C@]4(C)[C@H]3CC[C@]12C [Example 161, (3S,8S,9S,10R,13R,14S,17R)-17-((R)-4-(6-fluoropyridin-2-yl)butan-2-yl)-10,13-dimethyl-2,3,4,7,8,9,10,11,12,13,14,15,16,17-tetradecahydro-1H-cyclopenta[a]phenanthren-3-ol] | < 250 nM | 1000 to 10000 nM | –
C[C@H](CCc1ccc(F)cn1)[C@H]1CC[C@H]2[C@@H]3CC=C4C[C@@H](O)CC[C@]4(C)[C@H]3CC[C@]12C [Example 162, (1R,3aS,3bS,7S,9aR,9bS,11aR)-1-[(2R)-4-(5-fluoropyridin-2-yl)butan-2-yl]-9a,11a-dimethyl-1H,2H,3H,3aH,3bH,4H,6H,7H,8H,9H,9aH,9bH,10H,11H,11aH-cyclopenta[a]phenanthren-7-ol] | < 250 nM | 1000 to 10000 nM | –
C[C@H](CCc1cc(F)ccn1)[C@H]1CC[C@H]2[C@@H]3CC=C4C[C@@H](O)CC[C@]4(C)[C@H]3CC[C@]12C [Example 163, (3S,8S,9S,10R,13R,14S,17R)-17-((R)-4-(4-fluoropyridin-2-yl)butan-2-yl)-10,13-dimethyl-2,3,4,7,8,9,10,11,12,13,14,15,16,17-tetradecahydro-1H-cyclopenta[a]phenanthren-3-ol] | < 250 nM | 1000 to 10000 nM | –
C[C@H](CCc1ncccc1F)[C@H]1CC[C@H]2[C@@H]3CC=C4C[C@@H](O)CC[C@]4(C)[C@H]3CC[C@]12C [Example 164, (3S,8S,9S,10R,13R,14S,17R)-17-((R)-4-(3-fluoropyridin-2-yl)butan-2-yl)-10,13-dimethyl-2,3,4,7,8,9,10,11,12,13,14,15,16,17-tetradecahydro-1H-cyclopenta[a]phenanthren-3-ol] | 250 to 1000 nM | 250 to 1000 nM | –
C[C@H](CCc1cccc(Cl)n1)[C@H]1CC[C@H]2[C@@H]3CC=C4C[C@@H](O)CC[C@]4(C)[C@H]3CC[C@]12C [Example 165, (3S,8S,9S,10R,13R,14S,17R)-17-((R)-4-(6-chloropyridin-2-yl)butan-2-yl)-10,13-dimethyl-2,3,4,7,8,9,10,11,12,13,14,15,16,17-tetradecahydro-1H-cyclopenta[a]phenanthren-3-ol] | 250 to 1000 nM | > 10000 nM | –
C[C@H](CCc1cccc(C(F)(F)F)n1)[C@H]1CC[C@H]2[C@@H]3CC=C4C[C@@H](O)CC[C@]4(C)[C@H]3CC[C@]12C [Example 166, (3S,8S,9S,10R,13R,14S,17R)-10,13-dimethyl-17-((R)-4-(6-(trifluoromethyl)pyridin-2-yl)butan-2-yl)-2,3,4,7,8,9,10,11,12,13,14,15,16,17-tetradecahydro-1H-cyclopenta[a]phenanthren-3-ol] | 250 to 1000 nM | > 10000 nM | –
